Reference: patent US8343983B2, “Substituted pyrazolo-pyrimidine compounds” (ArQule, Inc., priority 2009, dated 2013)
Where two headings read alike, the source gives them in different places.

System: cancer cells
Assay: MTS assay: inhibition of cell growth (formazan absorbance at 492 nm after 72 hours with test compound)
Format: cell-based
Conditions: inhibition class
Procedure, shortened: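 DMEM with 1% FBS; cells seeded at 3000/well and grown 18 h at 37 °C, then exposed to compound for 72 h and to MTS/PMS for 4 h. IC50 is the concentration giving a 50% absorbance drop; grades are % inhibition bands.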

[1] = Homo sapiens, DLD-1 cells, read-out: DLD-1, MTS 72 hours at 10 uM
[2] = Homo sapiens, KATO III cells, read-out: KATO III, MTS 72 hours at 10 uM
[3] = Homo sapiens, MDA-MB-231 cells, read-out: MDA-MB-231, MTS 72 hours at 10 uM
[4] = Homo sapiens, NCI-H1299 cells, read-out: NCI-H1299, MTS 72 hours at 10 uM
[5] = Homo sapiens, PC-3 cells, read-out: PC-3, MTS 72 hours at 10 uM
[6] = PACA-2 cells, read-out: PACA-2, MTS 72 hours at 10 uM

SMILES	inhibition at 10 µM [1] [%]	inhibition at 10 µM [2] [%]	inhibition at 10 µM [3] [%]	inhibition at 10 µM [4] [%]	inhibition at 10 µM [5] [%]	inhibition at 10 µM [6] [%]
c1ccc(CNc2nc3c4c(n[nH]c4n2)CCN3)cc1 [Compound 101, N-benzyl-2,6,7,8-tetrahydro-1,2,3,5,6-pentaazaacenaphthylen-4-amine]	50 to 79	< 50	< 50	< 50	50 to 79	> 79
COc1ccc(CN2CCc3n[nH]c4nc(NCc5cccnc5)nc2c34)cc1 [Compound 102, 6-(4-methoxybenzyl)-N-(pyridin-3-ylmethyl)-2,6,7,8-tetrahydro-1,2,3,5,6-pentaazaacenaphthylen-4-amine]	> 79	> 79	> 79	> 79	> 79	> 79
COc1ccc(CN2CCc3n[nH]c4nc(N5CCN(c6ccncc6)CC5)nc2c34)cc1 [Compound 103, 6-(4-methoxybenzyl)-4-(4-pyridin-4-ylpiperazin-1-yl)-2,6,7,8-tetrahydro-1,2,3,5,6-pentaazaacenaphthylene]	> 79	> 79	> 79	50 to 79	> 79	> 79
COc1ccc(CN2CCc3n[nH]c4nc(NCCc5c[nH]c6ccccc56)nc2c34)cc1 [Compound 104, N-[2-(1H-indol-3-yl)ethyl]-6-(4-methoxybenzyl)-2,6,7,8-tetrahydro-1,2,3,5,6-pentaazaacenaphthylen-4-amine]	50 to 79	50 to 79	< 50	50 to 79	< 50	< 50
COc1ccc(CN2CCc3n[nH]c4nc(NCCN5CCOCC5)nc2c34)cc1 [Compound 105, 6-(4-methoxybenzyl)-N-(2-morpholin-4-ylethyl)-2,6,7,8-tetrahydro-1,2,3,5,6-pentaazaacenaphthylen-4-amine]	> 79	> 79	> 79	> 79	> 79	> 79
COc1ccc(CN2CCc3n[nH]c4nc(NC5Cc6ccccc6C5)nc2c34)cc1 [Compound 106, N-(2,3-dihydro-1H-inden-2-yl)-6-(4-methoxybenzyl)-2,6,7,8-tetrahydro-1,2,3,5,6-pentaazaacenaphthylen-4-amine]	> 79	> 79	< 50	50 to 79	< 50	50 to 79
COc1ccc(CN2CCc3n[nH]c4nc(NC5CCCCC5)nc2c34)cc1 [Compound 107, N-cyclohexyl-6-(4-methoxybenzyl)-2,6,7,8-tetrahydro-1,2,3,5,6-pentaazaacenaphthylen-4-amine]	< 50	< 50	< 50	< 50	< 50	< 50
COc1ccc(CN2CCc3n[nH]c4nc(NCCOc5ccccc5)nc2c34)cc1 [Compound 108, 6-(4-methoxybenzyl)-N-(2-phenoxyethyl)-2,6,7,8-tetrahydro-1,2,3,5,6-pentaazaacenaphthylen-4-amine]	50 to 79	< 50	< 50	< 50	< 50	> 79
COc1ccc(CN2CCc3n[nH]c4nc(NCCc5ccc(F)cc5)nc2c34)cc1 [Compound 109, N-[2-(4-fluorophenyl)ethyl]-6-(4-methoxybenzyl)-2,6,7,8-tetrahydro-1,2,3,5,6-pentaazaacenaphthylen-4-amine]	50 to 79	50 to 79	< 50	50 to 79	< 50	50 to 79
COc1ccc(CN2CCc3n[nH]c4nc(N5CCOCC5)nc2c34)cc1 [Compound 110, 6-(4-methoxybenzyl)-4-morpholin-4-yl-2,6,7,8-tetrahydro-1,2,3,5,6-pentaazaacenaphthylene]	< 50	< 50	< 50	< 50	< 50	< 50
COc1ccc(CN2CCc3n[nH]c4nc(NC5CCN(C)CC5)nc2c34)cc1 [Compound 111, 6-(4-methoxybenzyl)-N-(1-methylpiperidin-4-yl)-2,6,7,8-tetrahydro-1,2,3,5,6-pentaazaacenaphthylen-4-amine]	< 50	< 50	< 50	< 50	< 50	< 50
COc1ccc(CN2CCc3n[nH]c4nc(NCc5ccccc5Cl)nc2c34)cc1 [Compound 112, N-(2-chlorobenzyl)-6-(4-methoxybenzyl)-2,6,7,8-tetrahydro-1,2,3,5,6-pentaazaacenaphthylen-4-amine]	> 79	> 79	> 79	< 50	> 79	> 79
COc1ccc(CN2CCc3n[nH]c4nc(NCc5cccc(F)c5)nc2c34)cc1 [Compound 113, N-(3-fluorobenzyl)-6-(4-methoxybenzyl)-2,6,7,8-tetrahydro-1,2,3,5,6-pentaazaacenaphthylen-4-amine]	> 79	< 50	50 to 79	< 50	> 79	> 79
COc1ccc(CN2CCc3n[nH]c4nc(N5CCN(Cc6ccccc6)CC5)nc2c34)cc1 [Compound 114, 4-(4-benzylpiperazin-1-yl)-6-(4-methoxybenzyl)-2,6,7,8-tetrahydro-1,2,3,5,6-pentaazaacenaphthylene]	< 50	< 50	< 50	< 50	< 50	< 50
COc1ccc(CN2CCc3n[nH]c4nc(NCCc5c[nH]c6ccc(Cl)cc56)nc2c34)cc1 [Compound 115, N-[2-(5-chloro-1H-indol-3-yl)ethyl]-6-(4-methoxybenzyl)-2,6,7,8-tetrahydro-1,2,3,5,6-pentaazaacenaphthylen-4-amine]	> 79	> 79	> 79	> 79	> 79	> 79
COc1ccc(CN2CCc3n[nH]c4nc(NCCc5ccccc5)nc2c34)cc1 [Compound 116, 6-(4-methoxybenzyl)-N-(2-phenylethyl)-2,6,7,8-tetrahydro-1,2,3,5,6-pentaazaacenaphthylen-4-amine]	> 79	> 79	> 79	> 79	> 79	> 79
COc1ccc(CN2CCc3n[nH]c4nc(NCc5ccc(Cl)cc5)nc2c34)cc1 [Compound 117, N-(4-chlorobenzyl)-6-(4-methoxybenzyl)-2,6,7,8-tetrahydro-1,2,3,5,6-pentaazaacenaphthylen-4-amine]	50 to 79	< 50	50 to 79	50 to 79	< 50	< 50
COc1ccc(CN2CCc3n[nH]c4nc(Nc5ccccc5)nc2c34)cc1 [Compound 118, 6-(4-methoxybenzyl)-N-phenyl-2,6,7,8-tetrahydro-1,2,3,5,6-pentaazaacenaphthylen-4-amine]	< 50	< 50	< 50	< 50	< 50	< 50
COc1ccc(CN2CCc3n[nH]c4nc(Nc5ccc(N6CCN(C(=O)OCc7ccccc7)CC6)cc5)nc2c34)cc1 [Compound 119, benzyl 4-(4-{[6-(4-methoxybenzyl)-2,6,7,8-tetrahydro-1,2,3,5,6-pentaazaacenaphthylen-4-yl]amino}phenyl)piperazine-1-carboxylate]	> 79	> 79	> 79	50 to 79	50 to 79	50 to 79
COc1ccc(CN2CCc3n[nH]c4nc(Nc5ccc(N6CCN(C)CC6)cc5)nc2c34)cc1 [Compound 120, 6-(4-methoxybenzyl)-N-[4-(4-methylpiperazin-1-yl)phenyl]-2,6,7,8-tetrahydro-1,2,3,5,6-pentaazaacenaphthylen-4-amine]	> 79	> 79	> 79	50 to 79	> 79	> 79
c1cncc(CNc2nc3c4c(n[nH]c4n2)CCN3)c1 [Compound 121, N-(pyridin-3-ylmethyl)-2,6,7,8-tetrahydro-1,2,3,5,6-pentaazaacenaphthylen-4-amine]	< 50	< 50	< 50	< 50	< 50	< 50
c1cc(N2CCN(c3nc4c5c(n[nH]c5n3)CCN4)CC2)ccn1 [Compound 122, 4-(4-pyridin-4-ylpiperazin-1-yl)-2,6,7,8-tetrahydro-1,2,3,5,6-pentaazaacenaphthylene]	< 50	< 50	< 50	< 50	< 50	< 50
